In patent US10315994B2, “Photostable compounds, absorbing compounds and uses thereof” (Commonwealth Scientific and Industrial Research Organisation, priority 2015, dated 2019):

Assays:
Type in all cases: physicochemical
[1] = Solubility in sunscreen formulation / 3% solution in EtOH:capric/caprylic triglyceride:C12-C15 alkyl benzoate; conditions: for Solubility in standard commercial sunscreen formulations: e.g. 3% solution in 2:1:1 EtOH:capric/caprylic triglyceride:C12-C15 alkyl benzoate
Description: In one embodiment, the compounds may provide for improved solubility or stability in standard compositions, including sunscreen compositions. […] Such solubility may be measured by generating, for example, a 3% solution of the relevant compound in 2:1:1 EtOH:capric/caprylic triglyceride:C12-C15 alkyl benzoate.
(§1) 1 mL of a 3% solution of the test compound (30 mg of test compound in 1 mL solvent) was prepared in a solvent mix made up of 50% EtOH and 25% capric/caprylic triglyceride and 25% C12-C15 alkyl benzoate. 50 μL of this solution (containing 1.5 mg of test compound) was added carefully to the centre of a glass microscope slide and the volatile components left to evaporate in the dark for at least 3 hours to give a liquid film. The prepared films were then exposed for 1 hour to an Eimac 150 W xenon arc lamp filtered through Pyrex (15 Amp supply current, samples 19 cm from the lamp) previously allowed to warm up for 15 minutes prior to sample exposure. The irradiation was performed in a fume cupboard where the air flow was sufficient to keep sample T<30° C. One hour's exposure represented a calculated radiation dose (using meter) of approximately 100 MED.

[2] = Photostability of thin films exposed to xenon arc lamp; conditions: absorbance at λmax, irradiated vs unirradiated; xenon arc lamp 1 hour, thin film
Description: as §1, with “The prepared films were then exposed for 1 hour to an Eimac 150 W xenon arc lamp filtered through Pyrex (15 Amp supply current, samples 19 cm from the lamp) previously allowed to warm up for 15 minutes prior to sample exposure.” left out
In order to calculate the photostability of the test compounds, the exposed slides were placed in a beaker and rinsed with 2×5 mL EtOH, 1×5 mL MeOH. The combined washings were then added to a 100 mL volumetric flask and made up to 100 mL total volume with methanol. The UV absorbance was then measured in a 10 mm cuvette. The percent stability is measured as the ratio of absorbance at λmax for the irradiated sample compared to the unirradiated sample. As a further measure, a comparison of the sum of the absorbance in the 290-400 nm range was calculated.
The thin films are a good surrogate for testing the stability of a candidate in a sunscreen formulation as they use cosmetic emollients as solvent and are formed at cosmetically relevant concentrations.

[3] = UV/visible absorbance characteristics (λmax, λcrit, ε, E 1%,1 cm); conditions: Table 6

Solubility in standard commercial sunscreen formulations [1] | % λmax (% of original absorbance remaining) [2] [%] | Compound | Solubility for determination of photostability ([1]; solvent mix of the photostability method) | E (1%, 1 cm) [3] | λcrit [3] [nm] | λmax [3] [nm] | ε ([3]; in M-1 cm-1 (unit assumed))
readily soluble | 52 | CCCCC(CC)COC(=O)CCC(=O)C1=CN(c2ccc(N3C=C(C(=O)CCC(=O)OCC(CC)CCCC)C(C)(C)CC3)cc2)CCC1(C)C (stereo not drawn) [Compound 153] | – | – | – | – | –
readily soluble | 54 | CC1(C)CCN(c2ccc(N3C=C(C(=O)CCC(F)(F)F)C(C)(C)CC3)cc2)C=C1C(=O)CCC(F)(F)F [Compound 157] | – | – | – | – | –
– | – | CC1(C)CCN(C(C)(C)C)C=C1C(=O)C(F)(F)C(F)(F)C(F)(F)C(=O)C1=CN(C(C)(C)C)CCC1(C)C [Compound 168] | not sufficiently soluble | 1177 | 337 | 317 | 63346
